Results published in US20240268421A1, “FOOD COLOURING AGENTS” (v2food Pdy Ltd, priority 2020, published 2024).

Legend:
[1] = test system: Caco-2/HT29-MTX-E12 transwell model; assay: Ferritin formation in intestinal barrier model (bioavailability of iron); type: cell-based, Human
Method: Human Caco-2(enterocytes) and HT29-MTX-E12 (goblet) cells grown on a semi-permeable membrane comprise the intestinal barrier model. The co-cultures were grown on transwells as described below: • Caco-2 cells and HT29-MTX-E12 cells flasks were passaged when ˜90% confluent. • Cells were counted using a haemocytometer (or Coulter counter) to determine cell number/mL. • 0.6 mL growth media (no cells) was added to basolateral chamber of transwells. • 0.2 mL Caco-2/HT29-MTX-E12 cell solution was carefully added into apical chamber to achieve 3.6×104 Caco-2 and 4×10^3 HT29-MTX cells. • Co-cultures were grown on transwells for 21 days with media changed every 2-3 days. • At 21 days transepithelial electric resistance (or TEER) was measured using a Millicell voltohmeter from the apical to basolateral chamber (FIG. 1). These measurements indicate integrity of cell layer ensuring the cells are polarised and an intact barrier is ready for experimentation. […] Treatments were removed, replaced with HBSS, and incubated overnight. • After 16-18 hours cells (on apical side) were washed with PBS before trypsin was applied to remove cells from transwell membranes. • Cells were collected by centrifuging for 5 minutes. • Abcam ferritin assay was conducted according to manufacturer's instructions.
Results from the ferritin assay were analysed for significant differences using unpaired t tests. Differences were deemed significant when P<0.05. All statistical analyses were performed using GraphPad Prism 5 software.
All samples treatments were performed in the presence of 80 μM ascorbic acid.

[2] = Heating of phycoerythrin extracts, colour change visualised; type: physicochemical
Method: First, the crude, homogenised phycoerythrin, before clarification, was heated at 95° C. for 5 min and the colour change visualised.
(§1) Therefore, to gain a precise measurement of the thermal denaturation temperature of phycoerythrin, differential scanning fluorometry (DSF) was undertaken by heating 100 uL of clarified phycoerythrin from 25-95° C. by increasing the temperature by 0.5° C./10 sec.
Thermal denaturation of each Phycoerythrin sample (a)-(d) was undertaken. The results are depicted in FIG. 4.

[3] = Iron binding by fluorescence emission scan; conditions: 1 mg/mL protein, 0-32 mM iron chloride, excitation 498 nm
Method: Phycoerythrin extract from Example 1 (extraction included ultrasound treatment) was dissolved at a concentration of 2 mg/mL in 20 mM sodium phosphate buffer, pH 7 containing 0.02% sodium azide. Iron (II) chloride was dissolved in the same buffer at an initial concentration of 100 mM. The dissolved phycoerythrin extract was mixed 1:1 with a concentration series of iron chloride to give a final protein concentration of 1 mg/mL and final iron chloride concentrations of 0, 0.25, 0.5, 1, 2, 4, 8, 16 and 32 mM.
A fluorescence emission scan from 515-700 nm using an excitation wavelength of 498 nm was then performed on all samples using a Thermofisher Varioskan Flash (Instrument version 4.00.52). R-phycoerythrin has an emission maximum of 575 nm and therefore if iron binding occurs with the linear tetrapyrrole moiety of the protein, a change in fluorescence will be observed.

[4] = Differential scanning fluorometry (DSF) thermal denaturation of clarified phycoerythrin; type: physicochemical; conditions: heated 25-95° C. at 0.5° C./10 sec
Method: as §1

[5] = 25 μM Fe solutions, with 4 mg/mL phycoerythrin, 80 μM ascorbic acid
[6] = 25 μM Fe solutions, with 8 mg/mL phycoerythrin, 80 μM ascorbic acid
[7] = 25 μM Fe solutions, without phycoerythrin, 80 μM ascorbic acid
[8] = 25 μM iron, co-treatment with 4 or 8 mg/mL phycoerythrin
[9] = 50 μM Fe solutions, with 4 mg/mL phycoerythrin, 80 μM ascorbic acid
[10] = 50 μM Fe solutions, with 8 mg/mL phycoerythrin, 80 μM ascorbic acid
[11] = 50 μM Fe solutions, without phycoerythrin, 80 μM ascorbic acid

| Compound | Ferritin [1, 5] [ng/mL] | Ferritin [1, 6] [ng/mL] | Ferritin [1, 7] [ng/mL] | Ferritin production compared to cells only treated with the iron solution [1, 8] | Ferritin [1, 9] [ng/mL] | Ferritin [1, 10] [ng/mL] | Ferritin [1, 11] [ng/mL] | Ferritin production compared to cells only treated with the iron solution ([1]; 50 μM iron, co-treatment with 4 mg/mL phycoerythrin) | Ferritin ([1]; No Fe, 4 mg/mL phycoerythrin (section of 25 μM Fe solutions)) [ng/mL] | Ferritin ([1]; No Fe, 8 mg/mL phycoerythrin (section of 25 μM Fe solutions)) | Ferritin ([1]; No Fe, 8 mg/mL phycoerythrin (section of 50 μM Fe solutions)) [ng/mL] | Ferritin production compared to treatment with iron solutions ([1]; only 4 mg/mL phycoerythrin, no added iron) | Ferritin production compared to treatment with ferric chloride ([1]; only 8 mg/mL phycoerythrin, no added iron) | Colour change upon heating ([2]; 60° C. and 70° C. for 1 hour) | Colour change upon heating ([2]; crude, homogenised, before clarification, 95° C. for 5 min) | Change of fluorescence emission with iron [3] | Thermal denaturation temperature where phycoerythrin loses its fluorescence [4] [°C] |
| --- | --- | --- | --- | --- | --- | --- | --- | --- | --- | --- | --- | --- | --- | --- | --- | --- | --- |
| [Cl][Fe][Cl] [Fe (II) chloride, Iron (II) chloride] | 15.8 ± 1.7 | 13.9 ± 1.8 | 4.4 ± 1.0 | significantly improved ferritin production | 10.1 ± 3.5 | 16.0 ± 5.9 | 5.2 ± 1.6 |  |  |  |  |  |  |  |  |  |  |
| [Cl][Fe]([Cl])[Cl] [Fe (III) chloride, Iron (III) chloride] | 12.7 ± 0.9 | 12.7 ± 1.1 | 3.3 ± 0.5 | significantly improved ferritin production | 13.0 ± 3.1 | 1.8 ± 0.6 | 1.7 ± 0.8 | significantly improved ferritin production |  |  |  |  |  |  |  |  |  |
| phycoerythrin |  |  |  |  |  |  |  |  | 12.2 ± 0.3 | 7.5 ± 1.6^ ng/mL | 2.5 ± 0.4 | significantly increased ferritin production | significantly increased ferritin | no colour change | turned from red to brown | decrease in phycoerythrin fluorescence with increasing iron concentration | 77 |
